Data as given in patent publication US9833497B2, “Human originated EGF domain proteins and use of the same” (CHENGDU SOURCEBIO LIMITED-LIABILITY COMPANY, priority 2013, dated 2017).

Key:
Format in all cases: cell-based
E. coli DH5α = assay: Antibacterial activity: MIC and growth curve against E. coli DH5α in 96-well plate; conditions: minimal inhibitory concentration against E. coli DH5α; 96-well plate, 5×10^5 CFU/mL, 37° C., judged after 8 h
Outline: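 MIC taken as lowest protein level with no bacterial growth, tracked by A600 every 30 min during 37 °C, 175 rpm culture. Two-fold protein series 50-12.5 μg/mL final, triplicate wells, against 5×10^5 CFU/mL of LB-washed mid-log cells.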

Enterobacter cloacae = assay: MIC against Gram-negative bacteria: Enterobacter cloacae; conditions: for MIC (μg/mL) E. cloacae / MIC against E. cloacae: Enterobacter cloacae; for MIC (μg/mL) E. cloacae: 96-well plate, 37° C., 10 h; for MIC against E. cloacae / MIC: 10 h cultivation at 37° C.; for MIC: E. cloacae
Outline: (§1)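 Purified recombinant human EGF domain proteins are tested by broth dilution in LB against a 5×10^5 CFU/mL inoculum, with two-fold serial dilutions run in triplicate. Plates are incubated at 37° C with shaking, and the MIC is read as the lowest protein concentration without growth.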

Klebsiella pneumonia = assay: MIC against Gram-negative bacteria: Klebsiella pneumonia; conditions: for MIC (μg/mL) K. pneumonia / MIC against K. pneumonia: Klebsiella pneumonia; for MIC (μg/mL) K. pneumonia: 96-well plate, 37° C., 10 h; for MIC against K. pneumonia / MIC: 10 h cultivation at 37° C.; for MIC: K. pneumonia
Outline: as §1

Citrobacter diversus = assay: MIC against Gram-negative bacteria: Citrobacter diversus; conditions: for MIC (μg/mL) C. diversus / MIC against C. diversus: Citrobacter diversus; for MIC (μg/mL) C. diversus: 96-well plate, 37° C., 10 h; for MIC against C. diversus / MIC: 10 h cultivation at 37° C.; for MIC: C. diversus
Outline: as §1

Proteus vulgaris = assay: MIC against Gram-negative bacteria: Proteus vulgaris; conditions: for MIC (μg/mL) P. vulgaris / MIC against P. vulgaris: Proteus vulgaris; for MIC (μg/mL) P. vulgaris: 96-well plate, 37° C., 10 h; for MIC against P. vulgaris / MIC: 10 h cultivation at 37° C.; for MIC: P. vulgaris
Outline: as §1

Proteus mirabilis = assay: MIC against Gram-negative bacteria: Proteus mirabilis; conditions: for MIC (μg/mL) P. mirabilis / MIC against P. mirabilis: Proteus mirabilis; for MIC (μg/mL) P. mirabilis: 96-well plate, 37° C., 10 h; for MIC against P. mirabilis / MIC: 10 h cultivation at 37° C.; for MIC: P. mirabilis
Outline: as §1

Aeromonas hydrophila = assay: MIC against Gram-negative bacteria: Aeromonas hydrophila; conditions: for MIC (μg/mL) A. hydrophila / MIC against A. hydrophila: Aeromonas hydrophila; for MIC (μg/mL) A. hydrophila: 96-well plate, 37° C., 10 h; for MIC against A. hydrophila / MIC: 10 h cultivation at 37° C.; for MIC: A. hydrophila
Outline: as §1

Pseudomonas aeruginosa = assay: MIC against Gram-negative bacteria: Pseudomonas aeruginosa; conditions: for MIC (μg/mL) P. aeruginosa / MIC against P. aeruginosa: Pseudomonas aeruginosa; for MIC (μg/mL) P. aeruginosa: 96-well plate, 37° C., 10 h; for MIC against P. aeruginosa / MIC: 10 h cultivation at 37° C.; for MIC: P. aeruginosa
Outline: as §1

Serratia marcescens = assay: MIC against Gram-negative bacteria: Serratia marcescens; conditions: for MIC (μg/mL) S. marcescens / MIC against S. marcescens: Serratia marcescens; for MIC (μg/mL) S. marcescens: 96-well plate, 37° C., 10 h; for MIC against S. marcescens / MIC: 10 h cultivation at 37° C.; for MIC: S. marcescens
Outline: as §1

E. coli BL21 = assay: MIC against Gram-negative bacteria: E. coli BL21; conditions: E. coli BL21; for MIC (μg/mL) E. coli BL21: 96-well plate, 37° C., 10 h; for MIC against E. coli BL21 / MIC: 10 h cultivation at 37° C.
Outline: as §1

Moraxella catarrhalis = assay: MIC against Gram-negative bacteria: Moraxella catarrhalis; conditions: for MIC (μg/mL) M. catarrhalis / MIC against M. catarrhalis: Moraxella catarrhalis; for MIC (μg/mL) M. catarrhalis: 96-well plate, 37° C., 10 h; for MIC against M. catarrhalis / MIC: 10 h cultivation at 37° C.; for MIC: M. catarrhalis
Outline: as §1

PRT1495 (KANCSTTCFNGGTCFYPGKCICPPGLEGE; listed as Homo sapiens)
50 µg/mL: MIC (μg/mL) C. diversus (Citrobacter diversus; 5×10^5 CFU/mL) | MIC (μg/mL) P. mirabilis (Proteus mirabilis; 5×10^5 CFU/mL) | MIC (μg/mL) M. catarrhalis (Moraxella catarrhalis; 5×10^5 CFU/mL)
25 µg/mL: MIC (μg/mL) K. pneumonia (Klebsiella pneumonia; 5×10^5 CFU/mL) | MIC (μg/mL) P. vulgaris (Proteus vulgaris; 5×10^5 CFU/mL) | MIC (μg/mL) P. aeruginosa (Pseudomonas aeruginosa; 5×10^5 CFU/mL) | MIC (μg/mL) S. marcescens (Serratia marcescens; 5×10^5 CFU/mL)
12.5 µg/mL: MIC (μg/mL) E. cloacae (Enterobacter cloacae; 5×10^5 CFU/mL) | MIC (μg/mL) A. hydrophila (Aeromonas hydrophila; 5×10^5 CFU/mL) | MIC (μg/mL) E. coli BL21 (E. coli BL21; 5×10^5 CFU/mL)
25 mg/L: MIC (E. coli DH5α)

PRT1345 (NINECSSSPCLNKGICVDGVAGYRCTCVKGFVGLHCE; listed as Homo sapiens)
12.5 mg/L: MIC (E. coli DH5α) | MIC against E. cloacae (Enterobacter cloacae; 5×10^5 CFU/mL) | MIC against P. mirabilis (Proteus mirabilis; 5×10^5 CFU/mL)
25 mg/L: MIC against K. pneumonia (Klebsiella pneumonia; 5×10^5 CFU/mL) | MIC against P. vulgaris (Proteus vulgaris; 5×10^5 CFU/mL) | MIC against A. hydrophila (Aeromonas hydrophila; 5×10^5 CFU/mL) | MIC against E. coli BL21 (E. coli BL21; 5×10^5 CFU/mL) | MIC against M. catarrhalis (Moraxella catarrhalis; 5×10^5 CFU/mL)
50 mg/L: MIC against C. diversus (Citrobacter diversus; 5×10^5 CFU/mL) | MIC against P. aeruginosa (Pseudomonas aeruginosa; 5×10^5 CFU/mL) | MIC against S. marcescens (Serratia marcescens; 5×10^5 CFU/mL)

PRT416 (DVDECAPPAEPCGKGHRCVNSPGSFRCECKTGYYFDGISRMCV; listed as Homo sapiens)
12.5 mg/L: MIC (Citrobacter diversus; 5×10^5 CFU/mL) | MIC (Pseudomonas aeruginosa; 5×10^5 CFU/mL) | MIC (Serratia marcescens; 5×10^5 CFU/mL)
25 mg/L: MIC (Klebsiella pneumonia; 5×10^5 CFU/mL) | MIC (Proteus vulgaris; 5×10^5 CFU/mL) | MIC (Aeromonas hydrophila; 5×10^5 CFU/mL) | MIC (E. coli BL21; 5×10^5 CFU/mL) | MIC (Moraxella catarrhalis; 5×10^5 CFU/mL)
50 mg/L: MIC (E. coli DH5α) | MIC (Enterobacter cloacae; 5×10^5 CFU/mL) | MIC (Proteus mirabilis; 5×10^5 CFU/mL)

PRT1453 (DVDECAEPGLSHCHALATCVNVVGSYLCVCPAGYRGDGWHCE; listed as Homo sapiens)
50 mg/L: MIC against K. pneumonia (Klebsiella pneumonia; 5×10^5 CFU/mL) | MIC against M. catarrhalis (Moraxella catarrhalis; 5×10^5 CFU/mL)
12.5 mg/L: MIC against P. mirabilis (Proteus mirabilis; 5×10^5 CFU/mL) | MIC against A. hydrophila (Aeromonas hydrophila; 5×10^5 CFU/mL) | MIC against S. marcescens (Serratia marcescens; 5×10^5 CFU/mL) | MIC against E. coli BL21 (E. coli BL21; 5×10^5 CFU/mL)
25 mg/L: MIC (E. coli DH5α) | MIC against E. cloacae (Enterobacter cloacae; 5×10^5 CFU/mL) | MIC against C. diversus (Citrobacter diversus; 5×10^5 CFU/mL) | MIC against P. vulgaris (Proteus vulgaris; 5×10^5 CFU/mL) | MIC against P. aeruginosa (Pseudomonas aeruginosa; 5×10^5 CFU/mL)

PRT1411 (SVDNCPSNCYGNGDCISGTCHCFLGFLGPDCG; listed as Homo sapiens)
12.5 mg/L: MIC (E. coli DH5α) | MIC against E. cloacae (Enterobacter cloacae; 5×10^5 CFU/mL) | MIC against C. diversus (Citrobacter diversus; 5×10^5 CFU/mL) | MIC against P. mirabilis (Proteus mirabilis; 5×10^5 CFU/mL) | MIC against A. hydrophila (Aeromonas hydrophila; 5×10^5 CFU/mL) | MIC against P. aeruginosa (Pseudomonas aeruginosa; 5×10^5 CFU/mL) | MIC against S. marcescens (Serratia marcescens; 5×10^5 CFU/mL) | MIC against M. catarrhalis (Moraxella catarrhalis; 5×10^5 CFU/mL)
25 mg/L: MIC against K. pneumonia (Klebsiella pneumonia; 5×10^5 CFU/mL) | MIC against P. vulgaris (Proteus vulgaris; 5×10^5 CFU/mL) | MIC against E. coli BL21 (E. coli BL21; 5×10^5 CFU/mL)

PRT1016 (RAGPCPPRGCSNGGTCQLMPEKDSTFHLCLCPPGFIGPDCE; listed as Homo sapiens)
25 mg/L: MIC (Klebsiella pneumonia) | MIC (Proteus vulgaris) | MIC (Aeromonas hydrophila) | MIC (E. coli BL21)
50 mg/L: MIC (Citrobacter diversus) | MIC (Proteus mirabilis) | MIC (Pseudomonas aeruginosa)
12.5 mg/L: MIC (E. coli DH5α) | MIC (Enterobacter cloacae) | MIC (Serratia marcescens)
100 mg/L: MIC (Moraxella catarrhalis)

PRT74 (CDCFPHGSHSRTCDMATGQCACKPGVIGRQCNRCDNPFAEVTTLGCEV; listed as Homo sapiens)
12.5 µg/mL: MIC (μg/mL) C. diversus (Citrobacter diversus; 5×10^5 CFU/mL) | MIC (μg/mL) P. vulgaris (Proteus vulgaris; 5×10^5 CFU/mL) | MIC (μg/mL) P. mirabilis (Proteus mirabilis; 5×10^5 CFU/mL) | MIC (μg/mL) A. hydrophila (Aeromonas hydrophila; 5×10^5 CFU/mL) | MIC (μg/mL) E. coli BL21 (E. coli BL21; 5×10^5 CFU/mL) | MIC (μg/mL) M. catarrhalis (Moraxella catarrhalis; 5×10^5 CFU/mL)
50 mg/L: MIC (E. coli DH5α)
25 µg/mL: MIC (μg/mL) E. cloacae (Enterobacter cloacae; 5×10^5 CFU/mL) | MIC (μg/mL) P. aeruginosa (Pseudomonas aeruginosa; 5×10^5 CFU/mL) | MIC (μg/mL) S. marcescens (Serratia marcescens; 5×10^5 CFU/mL)
50 µg/mL: MIC (μg/mL) K. pneumonia (Klebsiella pneumonia; 5×10^5 CFU/mL)
